Target: T1, AR (Homo sapiens, UniProt P10275)
T1 construct: endogenous in cells; host or cells: VCaP cells
T1 sequence (P10275 1-920): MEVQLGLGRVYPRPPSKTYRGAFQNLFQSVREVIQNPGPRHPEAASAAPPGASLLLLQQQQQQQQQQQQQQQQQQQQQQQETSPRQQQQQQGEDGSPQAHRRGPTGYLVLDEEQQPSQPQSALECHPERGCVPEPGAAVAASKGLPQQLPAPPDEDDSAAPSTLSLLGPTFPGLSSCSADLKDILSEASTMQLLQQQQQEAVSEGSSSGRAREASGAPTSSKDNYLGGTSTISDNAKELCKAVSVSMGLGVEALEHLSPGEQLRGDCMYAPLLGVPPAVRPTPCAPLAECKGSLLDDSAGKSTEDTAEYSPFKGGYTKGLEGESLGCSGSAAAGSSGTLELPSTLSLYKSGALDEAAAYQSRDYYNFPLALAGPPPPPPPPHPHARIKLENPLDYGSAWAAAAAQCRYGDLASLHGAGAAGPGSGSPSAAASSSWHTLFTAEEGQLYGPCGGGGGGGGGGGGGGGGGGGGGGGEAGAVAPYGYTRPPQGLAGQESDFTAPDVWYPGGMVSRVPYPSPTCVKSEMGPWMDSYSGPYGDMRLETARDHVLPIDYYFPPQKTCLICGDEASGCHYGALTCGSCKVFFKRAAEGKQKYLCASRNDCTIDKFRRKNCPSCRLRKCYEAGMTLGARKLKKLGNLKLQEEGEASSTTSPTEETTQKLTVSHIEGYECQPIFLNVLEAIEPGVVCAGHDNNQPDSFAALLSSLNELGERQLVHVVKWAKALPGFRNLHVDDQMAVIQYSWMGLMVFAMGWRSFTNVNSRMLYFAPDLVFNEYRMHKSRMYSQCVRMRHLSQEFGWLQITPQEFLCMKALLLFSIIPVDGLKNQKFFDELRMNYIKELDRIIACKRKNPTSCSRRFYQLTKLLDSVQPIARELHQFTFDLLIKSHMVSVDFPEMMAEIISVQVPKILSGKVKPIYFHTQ
Test: VCAP AR Degradation Assay
Assay type: cell-based
Settings: VCaP cells, 24 h, AR ELISA; for DC50: concentration of compound when AR level = 50% of DMSO control (50% AR degradation); for Y: lowest measured AR level normalized to DMSO control (AR degradation efficiency)
Outline: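 VCaP cells (DMEM, 8% FBS) were treated 24 h at 37 °C with a 10-point 1:3 series from 5 µM final, with 0.1% DMSO control. Total AR in lysates was measured by sandwich ELISA as percent of DMSO. A 4-parameter fit gave DC50 (50% of control) and EC50; fitted Ymin marks degradation efficiency.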

| SMILES | DC50 | Y |
| --- | --- | --- |
| Cn1nc(N2CCC(=O)NC2=O)c2cccc(NC(=O)CN3CCC(CCO[C@H]4CC[C@H](N5C(=S)N(c6ccc(C#N)c(C(F)(F)F)c6)C(=O)C5(C)C)CC4)C(F)(F)C3)c21 (stereo partly drawn) [Cmpd 35, 2-(4-(2-(((trans)-4-(3-(4-Cyano-3-(trifluoromethyl)phenyl)-5,5-dimethyl-4-oxo-2-thioxoimidazolidin-1-yl)cyclohexyl)oxy)ethyl)-3,3-difluoropiperidin-1-yl)-N-(3-(2,4-dioxotetrahydropyrimidin-1(2H)-yl)-1-methyl-1H-indazol-7-yl)acetamide] | ≤ 2 nM | * (0<Y≤20%) |
| Cn1nc(N2CCC(=O)NC2=O)c2cccc(NC(=O)CN3CCC(CCO[C@H]4CC[C@H](N5C(=S)N(c6cnc(C#N)c(C(F)(F)F)c6)C(=O)C5(C)C)CC4)C(F)(F)C3)c21 (stereo partly drawn) [Cmpd 36, 2-(4-(2-(((trans)-4-(3-(6-Cyano-5-(trifluoromethyl)pyridin-3-yl)-5,5-dimethyl-4-oxo-2-thioxoimidazolidin-1-yl)cyclohexyl)oxy)ethyl)-3,3-difluoropiperidin-1-yl)-N-(3-(2,4-dioxotetrahydropyrimidin-1(2H)-yl)-1-methyl-1H-indazol-7-yl)acetamide] | ≤ 2 nM | * (0<Y≤20%) |
